According to publication PMC10559868, “Spectroscopic study and molecular simulation: Bovine serum albumin binding with anticancer Pt complex of amyl dithiocarbamate ligand” (Heliyon, 2023):

Molecular target: T1, Bovine serum albumin (BSA) (Bos taurus, UniProt P02769)
T1 construct: gene ALB
Settings: read-out: Kb M^-1))

T1 sequence (P02769 25-607): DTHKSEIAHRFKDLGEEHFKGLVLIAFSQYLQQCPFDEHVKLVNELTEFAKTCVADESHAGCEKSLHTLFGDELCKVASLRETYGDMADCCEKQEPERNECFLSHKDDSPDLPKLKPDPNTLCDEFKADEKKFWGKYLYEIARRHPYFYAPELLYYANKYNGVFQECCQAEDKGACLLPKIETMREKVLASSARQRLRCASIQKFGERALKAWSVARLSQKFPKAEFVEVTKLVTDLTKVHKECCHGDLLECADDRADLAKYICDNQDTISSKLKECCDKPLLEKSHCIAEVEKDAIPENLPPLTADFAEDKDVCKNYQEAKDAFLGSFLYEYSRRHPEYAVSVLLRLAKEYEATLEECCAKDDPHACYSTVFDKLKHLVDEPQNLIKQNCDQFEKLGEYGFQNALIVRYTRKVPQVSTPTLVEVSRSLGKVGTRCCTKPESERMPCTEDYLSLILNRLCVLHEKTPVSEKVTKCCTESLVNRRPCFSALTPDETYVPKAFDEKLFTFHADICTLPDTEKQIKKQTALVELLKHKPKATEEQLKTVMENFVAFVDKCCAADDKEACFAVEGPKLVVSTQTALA

## CCCCCNC1=[S+][Pt-2]2([S]1)[n+]1ccccc1-c1cccc[n+]12 [[Pt(bpy)(amyl.dtc)]NO3]
  Kd: 148 µM
